Experiments:
[1] = CO release from CORM-2 suspension in Na2SO3 solution as a function of ionic strength; format: physicochemical; conditions: n=3
Experimental: Experiments assessing the impact of the release medium on CO release (see FIG. 5A, 5B) were done in comparison to control experiments, within which 12 mg coated Na2SO3 crystals were measured in simulated gastric fluid without enzymes to control for possible detector interference with sulfites (interference was not observed with these experimental conditions; data not shown). Experiments assessing the impact of the coating procedure on CO release were done in comparison to control experiments, within which 3 mg CORM-2 was suspended in 25 mL of 0.333 g/L Na2SO3 solution (see FIG. 6 for results). In another set of control experiments, the impact of the ionic strength of the release medium and the impact of the salt with which the ionic strength was set (using sodium chloride solutions to set ionic strengths of 0.88 mol/L and 1.8 mol/L, respectively, and magnesium chloride to set an ionic strengths of 1.26 mol/L) on CO release was studied using CORM-2 suspensions. For that, CORM-2 was exposed to 25 mL of 0.333 g/L Na2SO3 in the appropriate release medium (for results, see FIG. 7).

[2] = CO release from CORM-2 suspension, amperometric detection in a sealed flask, triggered by Na2SO3; format: physicochemical
From the text: An Erlenmeyer flask purchased from Gebr. Rettberg (Gottingen, Germany) was used as reaction space. For insertion of the CO sensor and to seal the reaction space, a conically tapered joint from Schott Medica (Wertheim, Germany) was equipped with a glass guide tube for an electric wire. As a prerequisite for cross referencing with calibration gas, a single-bore stopcock was connected to the Erlenmeyer flask as well as to the conically tapered joint. The integrated CO sensor of the “Ei207D” CO detector (Ei Electronics, Shannon, Ireland) was removed and externally connected using a “Wire Wrap” 0.404 mm^2 wire (Kabeltronik, Denkendorf, Germany) linked with a 1.3 mm accessory shoe (Vogt AG, Lostorf, Switzerland). The wire was glued into the guide tube with “UHU plus endfest” epoxide resin (UHU, Bũhl, Germany) to seal the system. On-line videos were collected monitoring the detector with USB webcams with the Eyeline video surveillance software (NCH Software, Canberra, Australia).
The CO release from CORM-2 was triggered by Na2SO3 and amperiometrically detected. For that, 4.3 mg CORM-2 were placed in the Erlenmeyer flask filled with 15 ml Millipore water and stirred at 130 rpm (Variomag Telesystem, Thermo Scientific, MA). After 25 minutes, 10 mg Na2SO3 were added to the reaction space. CO release in ppm as read from the detector of each system was calibrated with 100 ppm CO calibration gas (diluted in air; from Real Gas (Martinsried, Germany) and normalized, accordingly (see FIG. 1 for results).
A concentration series of CO was generated by transferring different amounts of CORM-2 into 25 mL of a stirred (130 rpm) 333 mg/L aqueous Na2SO3 solution. CO release [ppm] after 60-80 minutes was plotted against the amount of CORM-2 [mg] placed into the system. Following this procedure, CO release [ppm] is expressed as amount of CORM-2 [mg], with one CORM-2 equivalent being defined as the amount of CO released per milligram CORM-2 after 60-80 minutes and when exposed to the experimental conditions described in this section (see FIG. 2B for results). CO release from CORM-2 expressed in CORM-2 equivalents [mg] followed a linear pattern (y=0.0192+1.0199x; r^2>0.99; n=1 for 14 independent measurements).
CO data reported in the example is calculated from the corresponding release from CORM-2 equivalents and if reported for CORM-A1, calculated using linear regression. […] Therefore, CO loss by and from the system was quantified and basis for data correction. For the correction, the loss by and from the system was recorded and added to the data as read from the detector (vide infra). For assessment of CO loss and data correction, CO was generated from CORM-2 in presence of Na2SO3 with stirring at 130 rpm, until reaching a value of approximately 800 ppm. At this point the stirring was stopped. CO loss [ppm] was recorded when a value of 720 ppm was reached and followed an exponential decline (y=717.5*e−0.145x; r^2>0.99; n=5; see FIGS. 3A and 3B for results).

Which “reduction of CO release” value ([1]; ionic strength 0.88 mol/L set with NaCl, compared with 0.008 mol/L) does the source give for `[C-]#[O+].[C-]#[O+].[C-]#[O+].[C-]#[O+].[C-]#[O+].[C-]#[O+].[Cl][Ru][Cl].[Cl][Ru][Cl]` [CORM-2, Tricarbonyldichlororuthenium(II) dimer] here?
The value was 26±9%.

And the “reduction of CO release” value ([1]; ionic strength 1.26 mol/L set with MgCl2)?
Its value is 50±3%.

And the “reduction of CO release” value ([1]; ionic strength 1.8 mol/L set with NaCl)?
The value was 53±6%.

What about the “CO release of CORM-2 suspended in water” value ([2]; 4.3 mg CORM-2 in 15 ml water, before Na2SO3 was added) of the same compound?
The value was “no detectable CO release”.

And the “time to complete CO release after Na2SO3 was added” value ([2]; 10 mg Na2SO3 added after 25 min)?
The value was ≤ 25 min.

And the “CO release reached within the time frame” value ([2]; 60-80 minutes in 25 mL of 333 mg/L aqueous Na2SO3, stirred at 130 rpm)?
Its value is > 90%.

And the “time to half maximal CO release” value ([2]; CORM-2 suspension control, 3 mg in 25 mL of 0.333 g/L Na2SO3)?
The value was 20 min.

What about the CO release plateau ([2]; after 40 minutes, Na2SO3 triggered) of the same compound?
The CO release plateau was 550 ppm.

And the “time at which CO release plateaus (corrected data)” value ([2]; sulfite triggered, corrected for CO loss)?
Its value is “approximately 140 minutes”.

Reference: patent US20170151278A1, “T[…] RELEASING SYSTEM” (priority 2014, published 2017)
